Earlier results on two compounds are cited in patent US20230255953A1, “USE OF ROLUPERIDONE IN PREVENTING RELAPSE IN SCHIZOPHRENIA PATIENTS” (Minerva Neurosciences, Inc., priority 2022, published 2023).

Series [1] concerns patients with schizophrenia. The conditions noted are these: Durgam et al. 2016; cited from earlier work.
A further series relates to chronic schizophrenia. The conditions noted are these: Arato et al. 2002 (ZEUS), cited from earlier work.

Read-outs that look alike come from different tables or passages of the source.

`CN(C)C(=O)N[C@H]1CC[C@H](CCN2CCN(c3cccc(Cl)c3Cl)CC2)CC1` [cariprazine]: in series [1], the Relapse rate was 24.8%.
Take `O=C1Cc2cc(CCN3CCN(c4nsc5ccccc45)CC3)c(Cl)cc2N1` [ziprasidone]: the “Relapse rate after one year” value is 43% with chronic schizophrenia (40 mg/day), 35% with chronic schizophrenia (80 mg/day) and 36% in the series with chronic schizophrenia (160 mg/day).
